{
  "source": "patent US10961238B2",
  "about": "“Modulators of hedgehog (Hh) signaling pathway” (E-THERAPEUTICS PLC, priority 2016, dated 2021)",
  "data": [
    {"test_system": "C3H10T1/2 cells", "experiment": "C3H assay: differentiation of C3H10T1/2 cells by mSHH, measurement of alkaline phosphatase", "assay_type": "cell-based, mouse", "conditions": "Mus musculus, C3H 10T1/2; C3H10T1/2 cells stimulated with mSHH for 72 hours; alkaline phosphatase activity; read-out: IC50 Ranges", "units": {"IC50": "µM"}, "values": [
      {"smiles": "O=C(Oc1ccccc1)N1CCC(S(=O)(=O)N2CCC(c3ccncc3)CC2)CC1", "note": "[Compound 114, phenyl 4-(4-pyridin-4-ylpiperidin-1-yl)sulfonylpiper-idine-1-carboxylate]", "IC50": "1 to 10"},
      {"smiles": "CC(C)(C)OC(=O)N1CCC(S(=O)(=O)N2CCC(c3c[nH]c4ncc(C(F)(F)F)cc34)CC2)CC1", "note": "[Compound 116]", "IC50": "0.1 to 1"},
      {"smiles": "Cn1cc(-c2cnc3[nH]cc(C4CCN(S(=O)(=O)C5CCN(C(=O)OC(C)(C)C)CC5)CC4)c3c2)cn1", "note": "[Compound 117, tert-butyl 4-[4-[5-(1-methylpyrazol-4-yl)-1H-pyrrolo [2,3-b]pyridin-3-yl]piperidin-1-yl]sulfonylpiper-idine-1-carboxylate]", "IC50": "1 to 10"},
      {"smiles": "O=S(=O)(C1CN(c2ccccn2)C1)N1CCC(c2c[nH]c3ncccc23)CC1", "note": "[Compound 118, 3-[1-[1-(2-Pyridyl)azetidin-3-yl]sulfonyl-4-piperidyl]-1H-pyrrolo[2,3-b]pyridine]", "IC50": "0.01 to 0.1"},
      {"smiles": "CC(C)N(C)C(=O)N1CC(S(=O)(=O)N2CCC(c3c[nH]c4ncccc34)CC2)C1", "note": "[Compound 119, N-methyl-N-propan-2-yl-3-[4-(1H-pyrrolo [2,3-b]pyridin-3-yl)piperidin-1-yl]sulfonylaze-tidine-1-carboxamide]", "IC50": "0.01 to 0.1"},
      {"smiles": "CC(C)(C)OC(=O)N1CC(S(=O)(=O)N2CCC(c3c[nH]c4ncc(C(F)(F)F)cc34)CC2)C1", "note": "[Compound 121, tert-butyl 3-[4-[5-(trifluoromethyl)-1H-pyrrolo[2,3-b]pyridin-3-yl]piperidin-1-yl]sulfonylaze-tidine-1-carboxylate]", "IC50": "1 to 10"},
      {"smiles": "COc1cnc2[nH]cc(C3CCN(S(=O)(=O)C4CN(C(=O)OC(C)(C)C)C4)CC3)c2c1", "note": "[Compound 123, tert-butyl 3-[4-(5-methoxy-1H-pyrrolo[2,3-b]pyridin-3-yl)piperidin-1-yl]sulfonylaze-tidine-1-carboxylate]", "IC50": "0.1 to 1"},
      {"smiles": "CC(C)(C)OC(=O)N1CC(S(=O)(=O)N2CCC(c3c[nH]c4ccccc34)CC2)C1", "note": "[Compound 125, tert-butyl 3-[4-(1H-indol-3-yl)piperidin-1-yl]sulfonylaze-tidine-1-carboxylate]", "IC50": "0.01 to 0.1"},
      {"smiles": "COC(=O)N1CC(S(=O)(=O)N2CCC(c3coc4cccnc34)CC2)C1", "note": "[Compound 126, methyl 3-(4-furo [3,2-b]pyridin-3-ylpiperidin-1-yl)sulfonylaze-tidine-1-carboxylate]", "IC50": "0.1 to 1"},
      {"smiles": "CC(C)(C)OC(=O)N1CC(S(=O)(=O)N2CCC(C3COc4cccnc43)CC2)C1", "note": "(stereo not shown) [Compound 127, tert-butyl 3-[4-(2,3-dihydrofuro[3,2-b]pyridin-3-yl)piperidin-1-yl]sulfonylaze-tidine-1-carboxylate]", "IC50": "0.1 to 1"},
      {"smiles": "CC(C)(C)OC(=O)N1CC(S(=O)(=O)N2CCC(c3c[nH]c4nccnc34)CC2)C1", "note": "[Compound 128, tert-Butyl 3-[[4-(5H-pyrrolo[2,3-b]pyrazin-7-yl)-1-piperidyl]sulfonyl] azetidine-1-carboxylate]", "IC50": "0.01 to 0.1"},
      {"smiles": "Cc1ccc(S(=O)(=O)n2cc(C3CCN(S(=O)(=O)C4CN(C(=O)OC(C)(C)C)C4)CC3)c3nccnc32)cc1", "note": "[Compound 129, tert-butyl 3-[4-[5-(4-methylphenyl)-sulfonylpyrrolo[2,3-b]pyrazin-7-yl]piperidin-1-yl]sulfonylaze-tidine-1-carboxylate]", "IC50": "1 to 10"},
      {"smiles": "CC(C)(C)OC(=O)N1CC(S(=O)(=O)N2CCC(c3cnn4ccncc34)CC2)C1", "note": "[Compound 130, tert-butyl 3-(4-pyrazolo[1,5-a]pyrazin-3-ylpiperidin-1-yl)sulfonylaze-tidine-1-carboxylate]", "IC50": "1 to 10"},
      {"smiles": "CC(C)(C)OC(=O)N1CCC(S(=O)(=O)N2CCC(c3coc4cccnc34)CC2)CC1", "note": "[Compound 132, tert-butyl 4-(4-furo[3,2-b]pyridin-3-ylpiperidin-1-yl)sulfonylpiper-idine-1-carboxylate]", "IC50": "0.1 to 1"},
      {"smiles": "CC(C)(C)OC(=O)N1CCC(S(=O)(=O)N2CCC(c3c[nH]c4ccccc34)CC2)CC1", "note": "[Compound 133, tert-butyl 4-[4-(1H-indol-3-yl)piperidin-1-yl]sulfonylpiper-idine-1-carboxylate]", "IC50": "0.1 to 1"},
      {"smiles": "Cc1noc(C)c1CCN1CC(S(=O)(=O)N2CCC(c3coc4cccnc34)CC2)C1", "note": "[Compound 134, 3-[1-[1-[2-(3,5-dimethyl-1,2-oxazol-4-yl)ethyl]azetidin-3-yl]sulfonylpiper-idin-4-yl]furo [3,2-b]pyridine]", "IC50": "0.1 to 1"},
      {"smiles": "Cc1noc(C)c1NC(=O)N1CC(S(=O)(=O)N2CCC(c3coc4cccnc34)CC2)C1", "note": "[Compound 135, N-(3,5-dimethyl-1,2-oxazol-4-yl)-3-(4-furo[3,2-b]pyridin-3-ylpiperidin-1-yl)sulfonylaze-tidine-carboxamide]", "IC50": "< 0.01"},
      {"smiles": "O=C(OC1CCOCC1)N1CC(S(=O)(=O)N2CCC(c3coc4cccnc34)CC2)C1", "note": "[Compound 136, oxan-4-yl 3-(4-furo[3,2-b]pyridin-3-ylpiperidin-1-yl)sulfonylaze-tidine-1-carboxylate]", "IC50": "0.01 to 0.1"},
      {"smiles": "O=C(N1CCOCC1)N1CC(S(=O)(=O)N2CCC(c3coc4cccnc34)CC2)C1", "note": "[Compound 137, [3-(4-furo [3,2-b]pyridin-3-ylpiperidin-1-yl)sulfonylaze-tidin-1-yl]-morpholin-4-ylmethanone]", "IC50": "0.1 to 1"},
      {"smiles": "Cc1noc(C)c1CC(=O)N1CC(S(=O)(=O)N2CCC(c3coc4cccnc34)CC2)C1", "note": "[Compound 138, N-2-(3,5-Dimethylisoxazol-4-yl)-acetyl 3-[(4-furo[3,2-b]pyridin-3-yl-1-piperidyl)sulfonyl]azetidine]", "IC50": "< 0.01"},
      {"smiles": "O=C(NC1(C(F)(F)F)CC1)N1CC(S(=O)(=O)N2CCC(c3coc4cccnc34)CC2)C1", "note": "[Compound 139, 3-(4-furo[3,2-b]pyridin-3-ylpiperidin-1-yl)sulfonyl-N-[1-(trifluoromethyl)cyclopropyl] azetidine-1-carboxamide]", "IC50": "0.01 to 0.1"},
      {"smiles": "CC(C)(C)COC(=O)N1CC(S(=O)(=O)N2CCC(c3coc4cccnc34)CC2)C1", "note": "[Compound 140, 2,2-dimethylpropyl 3-(4-furo[3,2-b]pyridin-3-ylpiperidin-1-yl)sulfonylaze-tidine-1-carboxylate]", "IC50": "0.01 to 0.1"},
      {"smiles": "O=C(OC1CCCCC1)N1CC(S(=O)(=O)N2CCC(c3coc4cccnc34)CC2)C1", "note": "[Compound 141, Cyclohexyl 3-[(4-furo[3,2-b]pyridin-3-yl-1-piperidyl)sulfonyl]azetidine-1-carboxylate]", "IC50": "0.01 to 0.1"},
      {"smiles": "COC(=O)c1cnc(N2CC(S(=O)(=O)N3CCC(c4c[nH]c5ncccc45)CC3)C2)o1", "note": "[Compound 142, methyl 2-[3-[4-(1H-pyrrolo [2,3-b]pyridin-3-yl)piperidin-1-yl]sulfonylaze-tidin-1-yl]-1,3-oxazole-5-carboxylate]", "IC50": "0.1 to 1"},
      {"smiles": "CN(C)CC(C)(C)OC(=O)N1CC(S(=O)(=O)N2CCC(c3ccncc3)CC2)C1", "note": "[Compound 144, [1-(dimethylamino)-2-methylpropan-2-yl]3-(4-pyridin-4-ylpiperidin-1-yl)sulfonylaze-tidine-1-carboxylate]", "IC50": "0.1 to 1"},
      {"smiles": "CCN(CC)CC(C)(C)CN1CC(S(=O)(=O)N2CCC(c3c[nH]c4ncccc34)CC2)C1", "note": "[Compound 145, N,N-diethyl-2,2-dimethyl-3-[3-[4-(1H-pyrrolo[2,3-b]pyridin-3-yl)piperidin-1-yl]sulfonylaze-tidin-1-yl]propan-1-amine]", "IC50": "1 to 10"},
      {"smiles": "CC(C)(CN1CCOCC1)CN1CC(S(=O)(=O)N2CCC(c3c[nH]c4ncccc34)CC2)C1", "note": "[Compound 146]", "IC50": "1 to 10"},
      {"smiles": "CC(C)C(C(C)C)N1CC(S(=O)(=O)N2CCC(c3c[nH]c4ncccc34)CC2)C1", "note": "[Compound 148, 3-[1-[1-(2,4-dimethylpentan-3-yl)azetidin-3-yl]sulfonylpiper-idin-4-yl]-1H-pyrrolo[2,3-b]pyridine]", "IC50": "1 to 10"},
      {"smiles": "COC(=O)N1CC(S(=O)(=O)N2CCC(c3c[nH]c4ncccc34)CC2)C1", "note": "[Compound 151, methyl 3-[4-(1H-pyrrolo [2,3-b]pyridin-3-yl)piperidin-1-yl]sulfonylaze-tidine-1-carboxylate]", "IC50": "0.1 to 1"},
      {"smiles": "COCC(C)(C)OC(=O)N1CC(S(=O)(=O)N2CCC(c3c[nH]c4ncccc34)CC2)C1", "note": "[Compound 152, (1-methoxy-2-methylpropan-2-yl) 3-[4-(1H-pyrrolo[2,3-b]pyridin-3-yl)piperidin-1-yl]sulfonylaze-tidine-1-carboxylate]", "IC50": "< 0.01"},
      {"smiles": "CC[C@H](C)OC(=O)N1CC(S(=O)(=O)N2CCC(c3c[nH]c4ncccc34)CC2)C1", "note": "[Compound 153, [(2S)-butan-2-yl] 3-[4-(1H-pyrrolo[2,3-b]pyridin-3-yl)piperidin-1-yl]sulfonylaze-tidine-1-carboxylate]", "IC50": "0.01 to 0.1"},
      {"smiles": "O=S(=O)(C1CN(c2ncccn2)C1)N1CCC(c2c[nH]c3ncccc23)CC1", "note": "[Compound 155, 3-[1-(1-pyrimidin-2-ylazetidin-3-yl)sulfonylpiper-idin-4-yl]-1H-pyrrolo[2,3-b]pyridine]", "IC50": "0.1 to 1"},
      {"smiles": "CCN(C(=O)N1CC(S(=O)(=O)N2CCC(c3c[nH]c4ncccc34)CC2)C1)C(C)(C)C", "note": "[Compound 156, N-tert-butyl-N-ethyl-3-[4-(1H-pyrrolo[2,3-b]pyridin-3-yl)piperidin-1-yl]sulfonylaze-tidine-1-carboxamide]", "IC50": "< 0.01"},
      {"smiles": "O=S(=O)(C1CN(Cc2cccnc2)C1)N1CCC(c2c[nH]c3ncccc23)CC1", "note": "[Compound 157, 3-[1-[1-(pyridin-3-ylmethyl)azetidin-3-yl]sulfonylpiper-idin-4-yl]-1H-pyrrolo[2,3-b]pyridine]", "IC50": "1 to 10"},
      {"smiles": "O=S(=O)(C1CN(C2CCCC2)C1)N1CCC(c2c[nH]c3ncccc23)CC1", "note": "[Compound 158]", "IC50": "1 to 10"},
      {"smiles": "CC1(CN2CC(S(=O)(=O)N3CCC(c4c[nH]c5ncccc45)CC3)C2)COC1", "note": "[Compound 159, 3-[1-[1-[(3-methyloxetan-3-yl)methyl]azetidin-3-yl]-sulfonylpiper-idin-4-yl]-1H-pyrrolo[2,3-b]pyridine]", "IC50": "1 to 10"},
      {"smiles": "O=C(OC[C@@H]1CCCO1)N1CC(S(=O)(=O)N2CCC(c3c[nH]c4ncccc34)CC2)C1", "note": "[Compound 163, [(2S)-oxolan-2-yl]methyl 3-[4-(1H-pyrrolo[2,3-b]pyridin-3-yl)piperidin-1-yl]sulfonylaze-tidine-1-carboxylate]", "IC50": "0.01 to 0.1"}
    ]}
  ]
}
